Laboratory results published in EP4043466B1, “PRC2 INHIBITORS” (Mirati Therapeutics, Inc., priority 2018, dated 2019).

What was measured:
[1] = target: purified human, His-tagged PRC2 complex (Homo sapiens, UniProt O75530+Q15910); test: Hot Spot HMT assay: inhibition of PRC2 enzymatic activity (transfer of tritiated methyl from SAM to core histone, filter binding); format: biochemical; conditions: Inhibition of PRC2-mediated enzymatic activity; 10 nM PRC2 complex, 0.05 mg/ml core histone H3, 1 uM 3H-SAM, 1 hr at 30°C
How it was run: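 Five-subunit complex (His-EZH2, Flag-EED, His-SUZ12, His-AEBP2, His-RbAp48) at 10 nM with 0.05 mg/ml core histone H3, pH 8 Tris buffer, 1% DMSO; 20 min compound pre-incubation at 30°C. Started with 1 uM [3H]-SAM, 1 hr at 30°C; tritiated H3 counted by scintillation. Compounds diluted from 1.0 µM top concentration.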

[2] = test system: PRC2-mediated histone H3 methylation; test: Tri-Methyl Histone H3 (Lys 27) Sandwich ELISA in Pfeiffer cells: inhibition of PRC2-mediated histone H3 methylation; format: cell-based, human; conditions: Inhibition of EZH2-mediated histone H3 trimethylation, Pfeiffer cells (EZH2 A677G), 96 hours incubation
How it was run: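 Pfeiffer DLBCL cells (EZH2 A677G mutant) treated with 3-fold serial dilutions, 1µM to 0.15 nM final, for 96 hours at 37°C. Acid (0.4M HCl) histone extracts, neutralized, assayed by H3K27me3 sandwich ELISA with HRP/TMB read at 450 nm.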

Karpas 422 cells = test: Karpas 422 cell viability, CTG (Cell Titre Glo) assay; format: cell-based, human; conditions: Inhibition of proliferation of Karpas 422 cells (EZH2 Y641N), viability measured Day 4, Day 7 or Day 11, time point of the tabulated values not stated
How it was run: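 Karpas 422 cells (EZH2 Y641N, DLBCL) plated at 1000 cells/well in RPMI with 20% FBS, exposed to compound 10µM down to 1.5nM in 3-fold steps at 37 °C. Viability by CellTiter-Glo on Days 4, 7 and 11; Day 11 plates re-fed with fresh medium and compound on Day 7. IC50 per time point.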

purified human, His-tagged PRC2 complex, sequence (Q15910 whole entry): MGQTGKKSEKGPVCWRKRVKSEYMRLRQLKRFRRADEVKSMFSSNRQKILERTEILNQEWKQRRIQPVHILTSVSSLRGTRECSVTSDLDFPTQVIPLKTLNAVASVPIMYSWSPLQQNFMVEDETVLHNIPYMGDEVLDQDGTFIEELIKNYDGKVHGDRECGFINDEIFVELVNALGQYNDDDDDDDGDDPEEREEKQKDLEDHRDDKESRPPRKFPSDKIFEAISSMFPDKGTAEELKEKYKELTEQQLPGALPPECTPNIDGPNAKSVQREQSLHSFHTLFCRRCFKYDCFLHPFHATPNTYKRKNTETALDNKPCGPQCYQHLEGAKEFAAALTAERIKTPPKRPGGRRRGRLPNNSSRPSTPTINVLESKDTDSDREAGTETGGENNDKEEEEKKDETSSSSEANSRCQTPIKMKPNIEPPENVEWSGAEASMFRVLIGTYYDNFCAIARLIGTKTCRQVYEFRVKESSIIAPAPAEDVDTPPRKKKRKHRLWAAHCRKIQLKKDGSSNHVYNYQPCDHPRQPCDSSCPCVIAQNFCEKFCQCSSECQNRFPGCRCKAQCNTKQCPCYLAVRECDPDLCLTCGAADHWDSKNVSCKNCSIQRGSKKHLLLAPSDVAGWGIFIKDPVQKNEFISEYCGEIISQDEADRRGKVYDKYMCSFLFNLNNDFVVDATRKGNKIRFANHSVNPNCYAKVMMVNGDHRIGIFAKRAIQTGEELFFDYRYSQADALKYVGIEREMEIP
purified human, His-tagged PRC2 complex, sequence (O75530 whole entry): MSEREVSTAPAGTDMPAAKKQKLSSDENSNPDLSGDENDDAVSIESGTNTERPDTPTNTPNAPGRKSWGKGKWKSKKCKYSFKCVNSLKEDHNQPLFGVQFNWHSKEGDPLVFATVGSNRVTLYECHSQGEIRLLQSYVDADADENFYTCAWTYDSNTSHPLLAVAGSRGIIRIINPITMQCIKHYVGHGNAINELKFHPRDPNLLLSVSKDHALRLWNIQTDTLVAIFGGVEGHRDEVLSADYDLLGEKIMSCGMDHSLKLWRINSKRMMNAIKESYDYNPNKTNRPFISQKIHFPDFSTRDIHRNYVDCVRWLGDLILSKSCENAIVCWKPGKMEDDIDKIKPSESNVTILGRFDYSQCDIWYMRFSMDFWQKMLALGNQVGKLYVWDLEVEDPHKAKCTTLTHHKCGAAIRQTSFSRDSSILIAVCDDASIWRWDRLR
purified human, His-tagged PRC2 complex, sequence (Q15022 whole entry partner): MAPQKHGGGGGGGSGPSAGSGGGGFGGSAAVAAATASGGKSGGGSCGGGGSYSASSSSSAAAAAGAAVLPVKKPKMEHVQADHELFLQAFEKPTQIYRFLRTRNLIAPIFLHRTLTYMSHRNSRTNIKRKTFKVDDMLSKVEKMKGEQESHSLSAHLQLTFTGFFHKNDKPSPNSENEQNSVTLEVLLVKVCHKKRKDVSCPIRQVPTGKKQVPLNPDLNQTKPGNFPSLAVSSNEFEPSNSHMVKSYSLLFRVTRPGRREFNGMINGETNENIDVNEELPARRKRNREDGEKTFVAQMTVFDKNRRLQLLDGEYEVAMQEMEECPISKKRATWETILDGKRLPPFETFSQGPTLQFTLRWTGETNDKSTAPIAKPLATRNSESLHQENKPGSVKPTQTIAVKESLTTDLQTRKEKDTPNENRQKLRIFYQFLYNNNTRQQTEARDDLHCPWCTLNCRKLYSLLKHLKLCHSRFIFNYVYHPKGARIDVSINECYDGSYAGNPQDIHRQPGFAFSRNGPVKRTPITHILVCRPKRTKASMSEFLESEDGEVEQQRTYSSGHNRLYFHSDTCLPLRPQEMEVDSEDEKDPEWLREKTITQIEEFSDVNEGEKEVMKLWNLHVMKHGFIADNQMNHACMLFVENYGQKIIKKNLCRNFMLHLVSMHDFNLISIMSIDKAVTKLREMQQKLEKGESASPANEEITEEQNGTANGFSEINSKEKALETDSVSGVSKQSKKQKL
purified human, His-tagged PRC2 complex, sequence (Q6ZN18 whole entry partner): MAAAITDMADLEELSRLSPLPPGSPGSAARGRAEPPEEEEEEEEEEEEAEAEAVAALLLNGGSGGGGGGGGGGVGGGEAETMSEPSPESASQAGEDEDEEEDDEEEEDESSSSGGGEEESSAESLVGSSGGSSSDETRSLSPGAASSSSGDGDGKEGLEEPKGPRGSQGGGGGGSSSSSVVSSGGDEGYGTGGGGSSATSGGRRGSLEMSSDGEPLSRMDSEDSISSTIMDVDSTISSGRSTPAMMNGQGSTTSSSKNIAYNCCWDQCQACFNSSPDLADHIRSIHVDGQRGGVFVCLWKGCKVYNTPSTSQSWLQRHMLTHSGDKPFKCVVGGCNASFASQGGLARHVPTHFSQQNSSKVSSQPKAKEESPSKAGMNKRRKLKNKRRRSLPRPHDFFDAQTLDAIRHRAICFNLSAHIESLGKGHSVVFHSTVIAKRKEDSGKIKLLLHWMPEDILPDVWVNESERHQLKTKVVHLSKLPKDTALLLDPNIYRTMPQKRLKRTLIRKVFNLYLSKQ
purified human, His-tagged PRC2 complex, sequence (Q09028 whole entry partner): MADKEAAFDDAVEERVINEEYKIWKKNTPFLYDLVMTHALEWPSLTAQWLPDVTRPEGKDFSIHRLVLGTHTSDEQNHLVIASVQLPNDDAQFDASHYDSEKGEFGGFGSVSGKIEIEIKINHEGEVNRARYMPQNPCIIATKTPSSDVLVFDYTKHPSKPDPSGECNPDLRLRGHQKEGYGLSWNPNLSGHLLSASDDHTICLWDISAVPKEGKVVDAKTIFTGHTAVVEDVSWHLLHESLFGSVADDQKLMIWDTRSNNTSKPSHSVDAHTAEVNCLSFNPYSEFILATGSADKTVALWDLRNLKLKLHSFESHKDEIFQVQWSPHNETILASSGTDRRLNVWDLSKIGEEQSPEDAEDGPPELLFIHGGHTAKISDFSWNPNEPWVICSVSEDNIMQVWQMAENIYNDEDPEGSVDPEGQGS

Compound | IC50 [1] [nM] | IC50 ([2]; Homo sapiens) [nM] | IC50 (Karpas 422 cells; Homo sapiens) [nM] | IC50 [2] [nM] | IC50 (Karpas 422 cells) [nM]
CN(C)S(=O)(=O)c1ccc(-c2cnc(NCc3c(F)ccc4c3CCO4)n3cc(C#N)nc23)cc1 [Example 58, 4-(2-cyano-5-(((5-fluoro-2,3-dihydrobenzofuran-4-yl)methyl)amino)imidazo[1,2-c]pyrimidin-8-yl)-N,N-dimethylbenzenesulfonamide] | < 100 | 100 to 500 | ≤ 250 |  | 
N#Cc1cn2c(NCc3c(F)ccc4c3CCO4)ncc(-c3ccccn3)c2n1 [Example 146, 5-(((5-fluoro-2,3-dihydrobenzofuran-4-yl)methyl)amino)-8-(pyridin-2-yl)imidazo[1,2-c]pyrlmldlne-2-carbonltrlle] | 100 to 500 | 100 to 500 | ≤ 250 |  | 
N#Cc1cn2c(NCc3c(F)ccc4c3CCO4)ncc(-c3cnccn3)c2n1 [Example 68, 5-(((5-fluoro-2,3-dihydrobenzofuran-4-yl)methyl)amino)-8-(pyrazin-2-yl)imidazo[1,2-c]pyrimidine-2-carbonitrile] | < 100 | 100 to 500 | ≤ 250 |  | 
Cc1nn(C[C@@H](C)O)c(C)c1-c1cnc(NCc2c(F)ccc3c2CCO3)n2cc(C#N)nc12 [Example 66, (R)-5-(((5-fluoro-2,3-dihydrobenzofuran-4-yl)methyl)amino)-8-(1-(2-hydroxypropyl)-3,5-dimethyl-1H-pyrazol-4-yl)imidazo[1,2-c]pyrimidine-2-carbonitrile] | 100 to 500 | 100 to 500 | ≤ 250 |  | 
5-(((5-fluoro-2,3-dihydrobenzofuran-4-yl)methyl)amino)-8-(2-methyl-6-morpholinopyridin-3-yl)imidazo[1,2-c]pyrimidine-2-carbonitrile [Example 56] | < 100 |  |  | 100 to 500 | ≤ 250
Cc1cc(C2CCCN2)ccc1-c1cnc(NCc2c(F)ccc3c2CCO3)n2cc(C#N)nc12 (single isomer, unassigned) [Example 214, 5-(((5-fluoro-2,3-dihydrobenzofuran-4-yl)methyl)amino)-8-(2-methyl-4-(pyrrolidin-2-yl)phenyl)imidazo[1,2-c]pyrimidine-2-carbonitrile] | < 100 |  |  | 100 to 500 | ≤ 250
CC(c1ccc(-c2cnc(NCc3c(F)ccc4c3CCO4)n3cc(C#N)nc23)cc1)N(C)C (stereo not drawn) [Example 199, 8-(4-(1-(dimethylamino)ethyl)phenyl)-5-(((5-fluoro-2,3-dihydrobenzofuran-4-yl)methyl)amino)imidazo[1,2-c]pyrimidine-2-carbonitrile] | < 100 | 100 to 500 | ≤ 250 |  | 
Cn1cccc(-c2cnc(NCc3c(F)ccc4c3CCO4)n3cc(C#N)nc23)c1=O [Example 156, 5-(((5-fluoro-2,3-dihydrobenzofuran-4-yl)methyl)amino)-8-(1-methyl-2-oxo-1,2-dihydropyridin-3-yl)imidazo[1,2-c]pyrimidine-2-carbonitrile] | 100 to 500 | > 500 | > 500 |  | 
Cc1cc(CN(C)C)ccc1-c1cnc(NCc2c(F)ccc3c2C(O)CO3)n2cc(C#N)nc12 (stereo not drawn) [Example 207, 8-(4-((dimethylamino)methyl)-2-methylphenyl)-5-(((5-fluoro-3-hydroxy-2,3-dihydrobenzofuran-4-yl)methyl)amino)imidazo[1,2-c]pyrimidine-2-carbonitrile] | < 100 | ≤ 100 | ≤ 250 |  | 
N#Cc1cn2c(NCc3c(F)ccc4c3CCO4)ncc(-c3ccc(C(=O)N4CCOCC4)cc3)c2n1 [Example 181, 5-(((5-fluoro-2,3-dihydrobenzofuran-4-yl)methyl)amino)-8-(4-(morpholine-4-carbonyl)phenyl)imidazo[1,2-c]pyrimidine-2-carbonitrile] | < 100 | 100 to 500 | ≤ 250 |  | 
CN(C)C(=O)c1cc(-c2cnc(NCc3c(F)ccc4c3CCO4)n3cc(C#N)nc23)n(C)n1 [Example 170, 5-(2-cyano-5-(((5-fluoro-2,3-dihydrobenzofuran-4-yl)methyl)amino)imidazo[1,2-c]pyrimidin-8-yl)-N,N,1-trimethyl-1H-pyrazole-3-carboxamide] | < 100 | ≤ 100 | ≤ 250 |  | 
CN1CCN(C(=O)c2cc(-c3cnc(NCc4c(F)ccc5c4CCO5)n4cc(C#N)nc34)n(C)n2)CC1 [Example 229, 5-(((5-fluoro-2,3-dihydrobenzofuran-4-yl)methyl)amino)-8-(1-methyl-3-(4-methylpiperazine-1-carbonyl)-1H-pyrazol-5-yl)imidazo[1,2-c]pyrimidine-2-carbonitrile] | < 100 | ≤ 100 | ≤ 250 |  | 
Cc1nc(-c2cnc(NCc3c(F)ccc4c3CCO4)n3cc(C#N)nc23)c(C)s1 [Example 145, 8-(2,5-dimethylthiazol-4-yl)-5-(((5-fluoro-2,3-dihydrobenzofuran-4-yl)methyl)amino)imidazo[1,2-c]pyrimidine-2-carbonitrile] | 100 to 500 | 100 to 500 | ≤ 250 |  | 
N#Cc1cn2c(NCc3c(F)ccc4c3CCO4)ncc(-c3ccc([C@H]4CCCN4)cc3)c2n1 [Example 220, (R)-5-(((5-fluoro-2,3-dihydrobenzofuran-4-yl)methyl)amino)-8-(4-(pyrrolidin-2-yl)phenyl)imidazo[1,2-c]pyrimidine-2-carbonitrile] | 100 to 500 | 100 to 500 | ≤ 250 |  | 
CN(C)CCn1nccc1-c1cnc(NCc2c(F)ccc3c2CCO3)n2cc(C#N)nc12 [Example 230, 8-(1-(2-(dimethylamino)ethyl)-1H-pyrazol-5-yl)-5-(((5-fluoro-2,3-dihydrobenzofuran-4-yl)methyl)amino)imidazo[1,2-c]pyrimidine-2-carbonitrile] | < 100 | ≤ 100 | ≤ 250 |  | 
N#Cc1cn2c(NCc3c(F)ccc4c3CCO4)ncc(-c3ccc(C4CC(=O)N4)cc3)c2n1 (stereo not drawn) [Example 222, 5-(((5-fluoro-2,3-dihydrobenzofuran-4-yl)methyl)amino)-8-(4-(4-oxoazetidin-2-yl)phenyl)imidazo[1,2-c]pyrimidine-2-carbonitrile] | < 100 | ≤ 100 | ≤ 250 |  | 
COCCOc1ccc(-c2cnc(NCc3c(F)ccc4c3CCO4)n3cc(C#N)nc23)cc1 [Example 161, 5-(((5-fluoro-2,3-dihydrobenzofuran-4-yl)methyl)amino)-8-(4-(2-methoxyethoxy)phenyl)imidazo[1,2-c]pyrimidine-2-carbonitrile] | < 100 | 100 to 500 | ≤ 250 |  | 
CN1CCc2cc(-c3cnc(NCc4c(F)ccc5c4CCO5)n4cc(C#N)nc34)ccc2C1=O [Example 168, 5-(((5-fluoro-2,3-dihydrobenzofuran-4-yl)methyl)amino)-8-(2-methyl-1-oxo-1,2,3,4-tetrahydroisoquinolin-6-yl)imidazo[1,2-c]pyrimidine-2-carbonitrile] | < 100 | 100 to 500 | ≤ 250 |  | 
Cc1ncc(F)cc1-c1cnc(NCc2c(F)ccc3c2CCO3)n2cc(C#N)nc12 [Example 62, 5-(((5-fluoro-2,3-dihydrobenzofuran-4-yl)methyl)amino)-8-(5-fluoro-2-methylpyridin-3-yl)imidazo[1,2-c]pyrimidine-2-carbonitrile] | < 100 | 100 to 500 | ≤ 250 |  | 
8-(4-((dimethylamino)methyl)phenyl)-5-(((5-fluoro-2,3-dihydrobenzofuran-4-yl)methyl-d2)amino)imidazo[1,2-c]pyrimidine-2-carbonitrile [Example 165] | < 100 |  |  | 100 to 500 | ≤ 250
N#Cc1cn2c(NCc3c(F)ccc4c3CCO4)ncc(-c3ccn(CC4CCCO4)n3)c2n1 (stereo not drawn) [Example 153, 5-(((5-fluoro-2,3-dihydrobenzofuran-4-yl)methyl)amino)-8-(1-((tetrahydrofuran-2-yl)methyl)-1H-pyrazol-3-yl)imidazo[1,2-c]pyrimidine-2-carbonitrile] | 100 to 500 | 100 to 500 | 250 to 500 |  | 
N#Cc1cn2c(NCc3c(F)ccc4c3CCO4)ncc(-c3ccc4c(c3)CCNC4=O)c2n1 [Example 172, 5-(((5-fluoro-2,3-dihydrobenzofuran-4-yl)methyl)amino)-8-(1-oxo-1,2,3,4-tetrahydroisoquinolin-6-yl)imidazo[1,2-c]pyrimidine-2-carbonitrile] | < 100 | 100 to 500 | 250 to 500 |  | 
Cc1ncc(-c2cnc(NCc3c(F)ccc4c3CCO4)n3cc(C#N)nc23)c(C)n1 [Example 71, 8-(2,4-dimethylpyrimidin-5-yl)-5-(((5-fluoro-2,3-dihydrobenzofuran-4-yl)methyl)amino)imidazo[1,2-c]pyrimidine-2-carbonitrile] | < 100 | 100 to 500 | ≤ 250 |  | 
